Source: US20220057378A1, “MICROBIAL MICROFLUIDIC BIOSENSOR” (priority 2015, published 2022)
Like-named read-outs stand apart in the source and are kept apart here.

Assays:
E. coli MG1655/Pb7 = assay: 18-strain chip induction; assay type: cell-based
Text: (§1) In an embodiment herein, the toxin response data across 18 unique sensing strains were also collected using a new chip design that houses 16 E. coli strains and 2 B. subtilis strains. The B. subtilis NCIB 3610/Amm3 construct is a “lights-off” sensor, meaning that GFP production drops when ammonium is introduced, following a slight increase due to faster growth on this preferred nitrogen source. […] By combining these sensor responses, we can identify cobalt by the unique response of Pb7 alone and lead by the unique combination of Zn6, Pb7, and Pb8 responses.

Pb2 = assay: microplate specificity test with on- and off-target heavy metals (fluorescence); assay type: cell-based, E. coli; conditions: on-target = 1, no-toxin control = 0; As 1.3, Cd 0.44, Cr(VI) 2, Cu 20, Pb 1, Hg 0.1, Co 20, Fe 500, Ni 1.7, Zn 7.6 μM
Text: (§2) Each column represents the fluorescence response of a strain to the on-target metal (normalized to “1”) and all off-target metals, where “0” represents the unchanged response for the no-toxin control.
(§3) Although the ability to sense cobalt, iron, nickel, and zinc is of secondary importance, these heavy metals were included as potential off-target inducers because they may be present in the natural water supply under test. […] This combinatorial logic was implemented in algorithms.

Cr5 = assay: as above; assay type: cell-based, E. coli; conditions: on-target = 1, no-toxin control = 0, As 1.3, Cd 0.44, Cr(VI) 2, Cu 20, Pb 1, Hg 0.1, Co 20, Fe 500, Ni 1.7, Zn 7.6 μM
Text: as §2, §3

Cu1 = assay: as above; assay type: cell-based, E. coli; conditions: on-target = 1, no-toxin control = 0; As 1.3, Cd 0.44, Cr(VI) 2, Cu 20, Pb 1, Hg 0.1, Co 20, Fe 500, Ni 1.7, Zn 7.6 μM
Text: as §2, §3

Cd1 = assay: as above; assay type: cell-based, E. coli; conditions: on-target = 1, no-toxin control = 0; As 1.3, Cd 0.44, Cr(VI) 2, Cu 20, Pb 1, Hg 0.1, Co 20, Fe 500, Ni 1.7, Zn 7.6 μM
Text: as §2, §3

As3 = assay: as above; assay type: cell-based, E. coli; conditions: on-target = 1, no-toxin control = 0; As 1.3, Cd 0.44, Cr(VI) 2, Cu 20, Pb 1, Hg 0.1, Co 20, Fe 500, Ni 1.7, Zn 7.6 μM
Text: as §2, §3

E. coli MG1655 = assay type: cell-based; conditions: for Number DE Genes: false discovery rate below 1%
Text: RNA-Seq results for promoter activation in E. coli MG1655 in response to single and multiple toxin exposures at low and high concentrations: Our analysis of the sequencing data from RNA-Seq experiments to determine candidate genes that are induced upon toxin exposure consisted of three main tasks: sequence alignment, quantification of gene expression, and identification of differentially expressed genes. Sequence alignment: Reads were aligned to the reference E. coli K-12 substr. MG1655 genome using a tolerance of at most two mismatches per alignment to protect against sequencing errors. The alignment was performed using Bowtie software, 5 which is known to be very efficient in aligning reads to a reference genome. Without being limiting, Bowtie software 5 can be used for the alignment. Those skilled in the art will appreciate that there are many such software programs for performing alignments.
Quantification of gene expression: The expression level of each gene was determined as a function of the number of aligned reads mapping to the gene. […] Additionally, we implemented our own algorithms for sequence alignment and quantification of gene expression in order to crosscheck all results.
Identification of differentially expressed genes: Finally, a set of statistical and information theory algorithms were applied in order to extract not only differentially expressed (DE) genes for each toxin with respect to the control samples (pure water) but also toxin-specific genes. DESeq is a standard tool for identifying DE genes that allowed us to select sensitive genes with differential expression between the control samples (pure water) and the cells exposed to toxin. It assumes that the number of counts for each gene across experimental replicates follows a negative binomial distribution (8, 9). We considered genes with a False Discovery Rate (FDR) lower than 1% as DE in order to ensure statistically robust DE genes. […] Additionally, genes with the largest number of counts and expression levels are preferable in order to maximize the signal-to-noise ratio. When it is not possible to find toxin-specific genes, the next generation of good candidates is formed by those genes satisfying the above properties for a small subset of toxins (multiple-toxin response). It is desirable to have single-toxin-specific genes for several of the toxins in the combination in order to determine toxin-specific multi-gene-responses by means of logical operations. […] Therefore, we have developed information theoretic measures to improve the toxin separability. The core idea of the approach is that low entropies (or highly informative genes) correspond to toxin-specific genes, while large entropies (low information) are associated with scenarios in which DE fold-changes across different toxins are similar and should be discarded.
(§4) Milestone 2.1: Expose target cells to toxins of interest over four orders of magnitude of concentration and extract RNA: Three strains of bacteria were exposed to relevant levels of all toxins and extracted RNA. The toxin exposure protocol involves first growing a culture of bacterial cells to mid-log phase (OD≤0.2). […] Finally, cellular RNA was stabilized using Qiagen RNA Protect reagent, the cells were centrifuged, and the pellet was frozen at −80° C. To investigate the cellular RNA response to toxin insult, we exposed E. coli MG1655, E. coli LABEC01, and B. subtilis 168 cells to the toxins and concentrations shown in Table 7 and extracted RNA.
Milestone 2.5: Prepare isolated RNA for Illumina sequencing using vendor provided reagents and carry out sequencing: We have prepared libraries and carried out sequencing for all toxins of interest.

[1] = system: E. coli MG1655 strains Co2-Co4 and Co6-Co8; assay: plate reader validation of cobalt-sensing promoters (GFP fluorescence); assay type: cell-based; conditions: microplate wells, various concentrations of cobalt
Hg3 = assay: microplate specificity test with on- and off-target heavy metals (fluorescence); assay type: cell-based, E. coli; conditions: on-target = 1, no-toxin control = 0, As 1.3, Cd 0.44, Cr(VI) 2, Cu 20, Pb 1, Hg 0.1, Co 20, Fe 500, Ni 1.7, Zn 7.6 μM
Text: as §2, §3

cellular esterases = assay: inhibition of cellular esterase activity (CFDA cleavage) in gill chip; assay type: cell-based, S. cerevisiae; conditions: 0.725 g/l malathion; two sequential exposures; recovers subsequently
Method: Additional constructs based on this promoter were generated while collecting on-chip response data for all other sensing strains using the sensor prototypes was performed. […] S. cerevisiae was loaded into a gill chip and CFDA (carboxyfluorescein diacetate) was added to the growth medium. […] Because CFDA breaks down in the medium over time thereby increasing the background signal, fresh medium+CFDA was introduced at 1,500 and 2,000 min. This explains the drift in baseline GFP during this period, which can be eliminated in subsequent experiments by mixing dye and medium on-chip.

GFP sensor strains = assay: SVM classification of GFP sensor responses (toxin / no toxin); assay type: cell-based; conditions: from classification accuracy and ROC curves
Text: Computational models to determine the threshold of detection for specific sensors based on models of experimental GFP responses. We used machine learning techniques to determine the relationships between the GFP output signal and the presence of a toxin. We have created a database containing the collected sensor response data. We have quantified the GFP threshold of detection for each sensor construct. We have constructed Receiver Operating Characteristic (ROC) curves for each sensor to achieve robust sensing. We constructed machine learning models capable of inferring the relationships between the GFP sensor responses and the presence or absence of a toxin at a given concentration. The algorithm learns these relationships from a set of training samples (GFP sensor responses) defined by the set of experimental conditions from which they were generated. The aim of the algorithm is to provide a general method capable of determining the experimental conditions associated with GFP sensor responses through the use of historical data. Specifically, we have built classification models based on Support Vector Machines (SVMs), which is one of the most popular classifiers due to its excellent performance in many contexts and its solid mathematical basis (1). For each toxin and concentration, we solved a binary classification problem in which the positive class represents the presence of the toxin in water and the negative class is associated with clean environments. Patterns were constructed with features containing GFP sensor responses at various timestamps to capture the temporal dynamics of the GFP signal. The optimal meta-parameters of the SVM classifier were determined by applying a 5-crossvalidation during the training phase (2). In order to have a reliable estimate of the performance of the model when deployed in real environments, we measured its performance over a set of samples (test patterns) not seen during the training phase. The SVM's performance was determined by the percentage of test samples correctly labeled as toxin/no toxin (classification accuracy). 80% of samples were used for training the SVM models and the remaining 20% of samples was used to evaluate their effectiveness. We generated 20 random training/test partitions to have an estimate of performance independent of the data partition.
Specifically, we have built classification models based on Support Vector Machines (SVMs), which is one of the most popular classifiers due to its excellent performance in many contexts and its solid mathematical basis. For each toxin and concentration, we solved a binary classification problem in which the positive class represents the presence of the toxin in water and the negative class is associated with clean environments. Patterns were constructed with features containing GFP sensor responses at various timestamps to capture the temporal dynamics of the GFP signal. The optimal meta-parameters of the SVM classifier were determined by applying a 5-crossvalidation during the training phase.
In order to have a reliable estimate of the performance of the model when deployed in real environments, we measured its performance over a set of samples (test patterns) not seen during the training phase. The SVM's performance was determined by the percentage of test samples correctly labeled as toxin/no toxin (classification accuracy). 80% of samples were used for training the SVM models and the remaining 20% of samples was used to evaluate their effectiveness. We generated 20 random training/test partitions based on data collected in single-strain chips (no crosstalk data) to have an estimate of performance.

Mall construct = assay: malathion construct loaded into the sensor device; assay type: cell-based, E. coli; conditions: prototype sensor
[2] = system: B. subtilis NCIB 3610/Amm3; assay: 18-strain chip induction; assay type: cell-based; conditions: 5 ppm NH4-N, GFP production drops
Text: as §1

B. subtilis 168 = assay: RNA-Seq after toxin exposure; assay type: cell-based
Method: as §4
We used RNA-Seq to verify the nasB promoter in B. subtilis 168 as a sensitive and specific promoter for the last remaining toxin, ammonium (see FIG. 2). […] This is desirable because, unlike the other water toxins of interest, ammonium is expected to increase the growth rate of biosensor cells. In this situation, a “lights-on” sensor could be triggered by any substance that increases the growth rate and resulting GFP production ability of cells, whereas a “lights-off” sensor remains immune to this effect.

Compound	fluorescence response of strain Pb2 (on-target lead) (Pb2)	fluorescence response of strain Cr5 (on-target chromium(VI)) (Cr5)	fluorescence response of strain Cu1 (on-target copper) (Cu1)	fluorescence response of strain Cd1 (on-target cadmium) (Cd1)	fluorescence response of strain As3 (on-target arsenic) (As3)	Number DE Genes (E. coli MG1655; high concentration)	Number DE Genes (E. coli MG1655; low concentration)	fluorescence response of strain Hg3 (on-target mercury) (Hg3)	threshold of detection (GFP sensor strains)	other results
[Co] [Cobalt]	0.80	−0.11	−0.01	0.67	0.30	1274	609	–	–	GFP response of strain Pb7 (E. coli MG1655/Pb7): responds sensitively; response of the dadA promoter (E. coli MG1655; RNA-Seq mean fold change): specific to cobalt alone; response of the hmp promoter (E. coli MG1655; RNA-Seq mean fold change): specific to cobalt alone; response of the ilvB promoter (E. coli MG1655; RNA-Seq mean fold change): specific to cobalt alone; response of the lipA promoter (E. coli MG1655; RNA-Seq mean fold change): specific to cobalt alone; response of the mmuP promoter (E. coli MG1655; RNA-Seq mean fold change): specific to cobalt alone; response of the soxR promoter (E. coli MG1655; RNA-Seq mean fold change): specific to cobalt alone; response of the tehA promoter (E. coli MG1655; RNA-Seq mean fold change): specific to cobalt alone; response of the ygbA promoter (E. coli MG1655; RNA-Seq mean fold change): specific to cobalt alone; response of the yjbJ promoter (E. coli MG1655; RNA-Seq mean fold change): specific to cobalt alone; response of the yqfA promoter (E. coli MG1655; RNA-Seq mean fold change): specific to cobalt alone; GFP response to cobalt in the growth medium [1]: significantly respond
[Fe] [Iron]	0.96	0.86	0.17	−0.31	−0.06	70	32	−0.38	–	fluorescence response of strain Cr5 (on-target chromium(VI)) (Cr5; listed as iron): sensitive
CCOC(=O)CC(SP(=S)(OC)OC)C(=O)OCC (stereo not shown) [Malathion, malathion]	–	–	–	–	–	41	370	–	72.5 mg/L	cell fluorescence (CFDA cleavage by cellular esterases) (cellular esterases): significantly drops; response of Mall construct in sensor device (Mall construct): did not produce a discernable response; response of the nemR promoter (E. coli MG1655; RNA-Seq mean fold change): responds to high concentrations
[Ni] [Nickel]	0.16	−0.35	−0.05	−0.08	−0.08	95	43	–	–	–
[Zn] [Zinc]	1.06	0.35	−0.08	−0.09	−0.14	596	24	0.78	–	fluorescence response of strain Hg3 (on-target mercury) (Hg3; listed as zinc): sensitive; response of the mntH promoter (E. coli MG1655; RNA-Seq mean fold change): high concentrations of zinc alone; response of the shiA promoter (E. coli MG1655; RNA-Seq mean fold change): high concentrations of zinc alone; response of the yjjZ promoter (E. coli MG1655; RNA-Seq mean fold change): responds monotonically to increasing concentrations; response of the zntA promoter (E. coli MG1655; RNA-Seq mean fold change): shows sensitivity to low and high concentrations; response of the zraP promoter (E. coli MG1655; RNA-Seq mean fold change): responds specifically and monotonically to increasing concentrations
Ammonium	–	–	–	–	–	–	–	–	one	GFP response of Amm3 strain (lights-off sensor) [2]: respond sensitively; response of the nasB promoter (B. subtilis 168): sensitive and specifically downregulated
